In US9757358B2 (priority 2010, dated 2017):

Experiments:
morphine dependence = details: cited from earlier work
sigma 2 (σ-2) site = sigma 2 (σ-2) site (Homo sapiens, UniProt Q5BJF2); details: cited from earlier work
opioid analgesia = details: Chichenkov et al. 1985; cited from earlier work
[1] = test system: post-operative pain in rats (thermal hyperalgesia); assay: Thermal hyperalgesia (Ugo Basile plantar test) after plantar incision, post-operative pain in rats; assay type: in vivo, rat; details: given 3.5 h after surgery
[2] = test system: post-operative pain in rats (mechanical allodynia); details: rat, in vivo

Sequence of sigma 2 (σ-2) site (Q5BJF2 whole entry): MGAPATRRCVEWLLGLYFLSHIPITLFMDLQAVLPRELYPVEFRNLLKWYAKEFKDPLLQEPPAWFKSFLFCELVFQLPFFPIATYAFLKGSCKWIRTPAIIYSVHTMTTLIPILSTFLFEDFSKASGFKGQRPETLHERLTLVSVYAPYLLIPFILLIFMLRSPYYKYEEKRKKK

Compound: COc1ccc(CCN2CCN(CCCc3ccccc3)CC2)cc1OC [SA4503]
- effect on addiction to morphine (morphine dependence; morphine-induced place preference, Nomura et al. 1999): modulatory effect on addiction to morphine

Compound: SKF 10047
- affinity for the sigma 2 site (sigma 2 (σ-2) site): micromolar affinity

Compound: O=C(CCCN1CCC(O)(c2ccc(Cl)cc2)CC1)c1ccc(F)cc1 [Haloperidol, haloperidol]
- effect on activity of opioids and opiates (morphine, DADL, bremazocine) (opioid analgesia): potentiates the activity of different opioids and opiates

Compound: Cc1cc(OCCN2CCOCC2)nn1-c1ccc2ccccc2c1 [compound 63, 4-{2-[5-Methyl-1-(naphthalen-2-yl)-1H-pyrazol-3-yloxy]ethyl}morpholine]
- effect on tramadol analgesia ([1]; compound 63 5, 10, 20, 40 mg/kg + tramadol 1.25 mg/kg): enhances tramadol analgesia
- effect on morphine analgesia ([1]; compound 63 10, 20, 40, 80 mg/kg + morphine 0.625 mg/kg): enhances morphine analgesia
- effect on buprenorphine analgesia [2]: enhances buprenorphine analgesia
- effect on morphine analgesia [2]: enhances morphine analgesia
- effect on oxycodone analgesia [2]: enhances oxycodone analgesia
- effect on tapentadol analgesia [2]: enhances tapentadol analgesia
- effect on tramadol analgesia [2]: enhances tramadol analgesia

Compound: dehydroepiandrosterone sulfate [DHEA]
- effect on development of morphine dependence (morphine dependence; Noda et al. 2001): some capacity to attenuate the development of morphine dependence
